Measurements published in publication PMC12705620 (Frontiers in Pharmacology, 2025).
Bridge positions count the residues as written; N and C are the ends. Square brackets hold non-standard residues; d marks the D form. Peptide text beside a SMILES is read from it. I, II: the chains in the order shown. Dap = NC[C@H](N)C(=O)O; Ahx = NCCCCCC(=O)O

Assays:
[1] = tested on: A. baumannii RUH875; assay: Bactericidal (time-kill) kinetics; assay type: cell-based, Acinetobacter baumannii; settings: for Time to complete killing: 3.75 µM peptide
Procedure: (§1) Time-kill kinetics were evaluated against S. aureus JAR060131 and A. baumannii RUH875. Mid-logarithmic phase bacterial cultures were diluted to a final concentration of 1 × 10^6 CFU/mL in PBS. Bacteria were incubated with 0.5-, 2-, and 4-fold the LC99.9. Assays were conducted in polypropylene tubes (Micronics) with a total volume of 500 µL. Control samples consisted of bacteria incubated in PBS alone. At 1, 5, 30, and 120 min, 50 µL samples were collected and immediately added to 50 µL of 0.05% (v/v) sodium polyanethol sulfonate (SPS; Sigma-Aldrich) in PBS to neutralize residual peptide activity ([Dankert et al., 1995]). Viable bacterial counts were determined by plating 10 µL of serial 10-fold dilutions onto BA plates. Colonies were counted after 24 h of incubation at 37 °C. All conditions were performed in triplicate.

[2] = tested on: HaCaT keratinocytes; assay: In vitro scratch wound assay; assay type: cell-based, human; settings: 1 µM peptide (TGF-β 20 ng/mL); for Percentage of wound closure: 60 h (legend: 64 h); for Percentage of wound closure / Rate of cell migration: versus no treatment
Procedure: Cell migration following injury was assessed using an in vitro scratch assay with the IncuCyte wound maker tool (Sartorius). HaCaT keratinocytes were seeded in 96-well ImageLock plates (Sartorius) at 3 × 10^5 cells/well (100 µL) in DMEM supplemented with 10% FBS and incubated at 37 °C, 5% CO2 for 48 h, with medium change at 24 h, until confluence. Uniform scratches were introduced using the wound maker tool according to the manufacturer’s instructions. After wounding, wells were washed twice with 100 µL PBS to remove cell debris. Cells were then treated with 1 µM peptides in serum-free DMEM, to focus specifically on cell migration from the wound edges. The absence of serum minimizes interference with peptide activity. Transforming growth factor-beta (TGF-β; human; 20 ng/mL; Sigma-Aldrich) and 5% dimethyl sulfoxide (DMSO; Sigma-Aldrich) were used as positive and negative controls, respectively. Additional controls included serum-free DMEM (no-treatment control) and 50% (v/v) acetonitrile in Milli-Q water as solvent control. Wound closure was monitored using the IncuCyte S3 live-cell imaging system (Sartorius) with bright-field microscopy. Images were captured every 6 h for up to 60 h. Image analysis was performed using ImageJ software (version 1.53t, NIH, USA) with the “Wound Healing” plugin, as described by Suarez Arnedo et al. ([Suarez-Arnedo et al., 2020]). Quantitative parameters included wound width (µm), percent wound closure, and migration rate (µm/hour).

[3] = tested on: S. aureus LUH14616 (MRSA); assay: Ex vivo human skin wound infection model; set-up: species or system Staphylococcus aureus
From the text: Human skin from 3 donors was obtained via the Residual Tissue Biobank of the Red Cross Hospital (Beverwijk, Netherlands). The use of these coded, post-operative residual tissue samples was approved by patients through the informed opt-out-plus protocol of the Red Cross Hospital Skin ([Code-of-Conduct-for-Health-Research, 2022]) and processed for an ex vivo wound infection model as described ([Dijksteel et al., 2020]). The Wounded skin grafts were sectioned into approximately 1 cm^2 samples using a sterile scalpel and were decontaminated by immersion in 70% ethanol for 30 min, followed by three PBS washes. Samples were placed dermis-down and wound-side-up on stainless steel grids with central indentations, positioned in 12-well plates, and cultured at the air–liquid interface in DMEM at 37 °C and 5% CO2. To confine reagents to the wound area, a resin barrier (OpalDam; Ultradent) was applied to the wounded area and polymerized using a hand-held UV light (Valo X) for 10 s. The wounds were then topically infected with 10 µL of S. aureus LUH14616 suspension of 1 × 10^7 CFU/mL (final dose: 1 × 10^5 CFU/graft) in PBS for 1 h, followed by topical application of 10 µL of peptide solution for 4 h. Chlorhexidine (0.5% (v/v) in 70% ethanol; Entick B.V.) and PBS were used as positive and negative controls, respectively. After treatment, tissue samples were transferred to polypropylene vials containing 1 mL PBS supplemented with 0.025% (v/v) SPS and a 7 mm stainless steel bead. Homogenization was performed using a MagnaLyser System (Roche) with three 30-s cycles at 7,000 rpm, with 30 s of cooling on ice between cycles. Homogenates were 10-fold serially diluted in PBS, and 100 µL aliquots were plated on BA plates. CFUs were enumerated after overnight incubation at 37 °C.

[4] = tested on: S. aureus JAR060131; assay: Bactericidal (time-kill) kinetics; assay type: cell-based, Staphylococcus aureus; settings: for Time to complete bacterial eradication: all tested concentrations (0.94, 1.88, 3.75 µM); for Log reduction in CFU: within 5 min at 3.75 µM
Procedure: as §1

[5] = tested on: Enterococcus faecium LUH15122; assay type: cell-based; settings: LUH15122, 18 h
Procedure: Bactericidal activity was assessed as previously described ([Breij et al., 2018]). Briefly, mid-logarithmic phase bacterial cultures were diluted in RPMI to 1 × 10^7 CFU/mL. For fungicidal assays, fungal cultures were prepared in RPMI supplemented with 1% glucose (Merck) and diluted to 2–5 × 10^5 CFU/mL. For each condition, 10 µL of the suspension was added to 90 µL of peptide-containing RPMI or RPMI supplemented with 50% (v/v) pooled human plasma (hereafter referred to as 50% plasma; final bacterial concentration 1 × 10^6 CFU/mL, final fungal concentration 2–5 × 10^4 CFU/mL. Human plasma from four healthy volunteers (Sanquin, Netherlands) was pooled, and stored at −20 °C until use. Peptides were tested similarly for fungicidal activity, after 18 h of incubation at 37 °C with shaking (120 rpm) under humidified conditions, bacterial and fungal survival was determined by plating 10 µL aliquots onto BA plates. Assays were performed in duplicate in round-bottom polypropylene microtiter plates (Costar) and repeated independently three times. Untreated controls included bacteria exposed to RPMI alone or RPMI with 50% plasma. Bactericidal and fungicidal activity was expressed as the lethal concentration 99.9% (LC99.9), defined as the lowest peptide concentration causing ≥99.9% reduction in numbers of CFU compared to the initial inoculum.

[6] = 20 µM and 200 µM topical, 1 h infection, 4 h treatment, versus PBS (Figure 4B)

Row | Compound | Time to complete killing [1] | Log reduction in CFU ([1]; within 1 min at 3.75 µM) | Percentage of wound closure [2] | Rate of cell migration [2] | Reduction of bacterial load (CFU counts) [3, 6] | Reduction of bacterial load after different infection durations ([3]; 200 µM for 4 h, started 0.5, 1 or 2 h post-infection (Figure 4D)) | Reduction of bacterial load (CFU counts) ([3]; 200 µM topical, 4 h treatment, versus PBS (Figure 4B), p < 0.05) | Reduction of bacterial load (CFU counts) ([3]; 200 µM topical, 4 h treatment, versus untreated control (Figure 4C), p < 0.001) | Effective bactericidal concentration ([3]; ex vivo wounded human skin, 4 h treatment) | Time to complete bacterial eradication [4] | Log reduction in CFU [4] | LC99.9 [5] | Wound width reduction ([2]; serum-free DMEM, versus untreated control)
1 | N=C(N)NCCC[C@H](NC(=O)[C@H](Cc1c[nH]c2ccccc12)NC(=O)[C@H](CCC(N)=O)NC(=O)[C@H](Cc1c[nH]c2ccccc12)NC(=O)[C@H](CCCNC(=N)N)NC(=O)[C@@H](N)CCCNC(=N)N)C(=O)NC[C@H](NC(=O)[C@H](CCCNC(=N)N)NC(=O)[C@H](Cc1c[nH]c2ccccc12)NC(=O)[C@H](CCC(N)=O)NC(=O)[C@H](Cc1c[nH]c2ccccc12)NC(=O)[C@H](CCCNC(=N)N)NC(=O)[C@@H](N)CCCNC(=N)N)C(=O)NCCCCCC(=O)N[C@@H](CSSC[C@H](NC(=O)CCCCCNC(=O)[C@H](CNC(=O)[C@H](CCCNC(=N)N)NC(=O)[C@H](Cc1c[nH]c2ccccc12)NC(=O)[C@H](CCC(N)=O)NC(=O)[C@H](Cc1c[nH]c2ccccc12)NC(=O)[C@H](CCCNC(=N)N)NC(=O)[C@@H](N)CCCNC(=N)N)NC(=O)[C@H](CCCNC(=N)N)NC(=O)[C@H](Cc1c[nH]c2ccccc12)NC(=O)[C@H](CCC(N)=O)NC(=O)[C@H](Cc1c[nH]c2ccccc12)NC(=O)[C@H](CCCNC(=N)N)NC(=O)[C@@H](N)CCCNC(=N)N)C(N)=O)C(N)=O [LBT-1] (I: H-RRWQWR[Dap][Ahx]C-NH2 / II: H-RRWQWR[Dap][Ahx]C-NH2 / III: H-RRWQWR / IV: H-RRWQWR; amide I:7-III:C, II:7-IV:C; disulfide I:9-II:9; N-terminus and C-terminus assumed) | ≤ 30 min | > 3 log | significant wound closure | ns | dose-dependent reduction | significantly reduced bacterial load in all groups | significant decrease | significantly reduced bacterial load | 200 µM | up to 120 min | > 3 log | 0.94 µM | 
2 | N=C(N)NCCC[C@H](NC(=O)[C@H](Cc1c[nH]c2ccccc12)NC(=O)[C@H](CCC(N)=O)NC(=O)[C@H](Cc1c[nH]c2ccccc12)NC(=O)[C@H](CCCNC(=N)N)NC(=O)[C@@H](N)CCCNC(=N)N)C(=O)NCCCC[C@H](NC(=O)[C@H](CCCNC(=N)N)NC(=O)[C@H](Cc1c[nH]c2ccccc12)NC(=O)[C@H](CCC(N)=O)NC(=O)[C@H](Cc1c[nH]c2ccccc12)NC(=O)[C@H](CCCNC(=N)N)NC(=O)[C@@H](N)CCCNC(=N)N)C(=O)NCCCCCC(=O)N[C@@H](CSSC[C@H](NC(=O)CCCCCNC(=O)[C@H](CCCCNC(=O)[C@H](CCCNC(=N)N)NC(=O)[C@H](Cc1c[nH]c2ccccc12)NC(=O)[C@H](CCC(N)=O)NC(=O)[C@H](Cc1c[nH]c2ccccc12)NC(=O)[C@H](CCCNC(=N)N)NC(=O)[C@@H](N)CCCNC(=N)N)NC(=O)[C@H](CCCNC(=N)N)NC(=O)[C@H](Cc1c[nH]c2ccccc12)NC(=O)[C@H](CCC(N)=O)NC(=O)[C@H](Cc1c[nH]c2ccccc12)NC(=O)[C@H](CCCNC(=N)N)NC(=O)[C@@H](N)CCCNC(=N)N)C(N)=O)C(N)=O [LBT] (I: H-RRWQWRK[Ahx]C-NH2 / II: H-RRWQWRK[Ahx]C-NH2 / III: H-RRWQWR / IV: H-RRWQWR; amide I:7-III:C, II:7-IV:C; disulfide I:9-II:9; N-terminus and C-terminus assumed) | 120 min |  | significant wound closure | highest migration (p < 0.05) | minimal and non-significant reductions |  |  |  |  | up to 120 min | > 3 log |  | significantly reduced wound width
